US20230048132A1, “CYCLIN-DEPENDENT KINASE INHIBITORS” (SPV THERAPEUTICS INC., priority 2018, published 2023)
pIC50: −log10 of the molar value.

Tests used:
CDK4-CYCLIND1 = CDK4-CYCLIND1 (Homo sapiens, UniProt P11802); experiment: CDK inhibition assay (microfluidic LabChip, IC50 format); settings: CDK4 CyclinD1 IC50, Table 4a; a second value in parentheses for some compounds
CDK9-CYCLINT1 = target: T1, CDK9-CYCLINT1 (Homo sapiens, UniProt P50750); experiment: as above; assay type: biochemical; settings: Table 4a; read-out: CDK9 CyclinT1 IC50
T1 construct: purchased Carna
T1 sequence (P50750 whole entry): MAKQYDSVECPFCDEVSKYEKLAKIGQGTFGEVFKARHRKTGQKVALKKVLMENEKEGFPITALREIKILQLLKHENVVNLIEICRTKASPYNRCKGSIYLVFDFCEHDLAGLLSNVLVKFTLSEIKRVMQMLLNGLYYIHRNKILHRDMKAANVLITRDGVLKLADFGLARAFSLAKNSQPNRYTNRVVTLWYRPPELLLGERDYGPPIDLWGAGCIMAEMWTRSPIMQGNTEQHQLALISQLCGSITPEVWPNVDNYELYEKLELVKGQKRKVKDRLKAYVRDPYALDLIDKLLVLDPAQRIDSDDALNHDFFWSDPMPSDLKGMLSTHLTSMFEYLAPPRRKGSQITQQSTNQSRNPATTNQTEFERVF
T1 sequence (O60563 whole entry partner): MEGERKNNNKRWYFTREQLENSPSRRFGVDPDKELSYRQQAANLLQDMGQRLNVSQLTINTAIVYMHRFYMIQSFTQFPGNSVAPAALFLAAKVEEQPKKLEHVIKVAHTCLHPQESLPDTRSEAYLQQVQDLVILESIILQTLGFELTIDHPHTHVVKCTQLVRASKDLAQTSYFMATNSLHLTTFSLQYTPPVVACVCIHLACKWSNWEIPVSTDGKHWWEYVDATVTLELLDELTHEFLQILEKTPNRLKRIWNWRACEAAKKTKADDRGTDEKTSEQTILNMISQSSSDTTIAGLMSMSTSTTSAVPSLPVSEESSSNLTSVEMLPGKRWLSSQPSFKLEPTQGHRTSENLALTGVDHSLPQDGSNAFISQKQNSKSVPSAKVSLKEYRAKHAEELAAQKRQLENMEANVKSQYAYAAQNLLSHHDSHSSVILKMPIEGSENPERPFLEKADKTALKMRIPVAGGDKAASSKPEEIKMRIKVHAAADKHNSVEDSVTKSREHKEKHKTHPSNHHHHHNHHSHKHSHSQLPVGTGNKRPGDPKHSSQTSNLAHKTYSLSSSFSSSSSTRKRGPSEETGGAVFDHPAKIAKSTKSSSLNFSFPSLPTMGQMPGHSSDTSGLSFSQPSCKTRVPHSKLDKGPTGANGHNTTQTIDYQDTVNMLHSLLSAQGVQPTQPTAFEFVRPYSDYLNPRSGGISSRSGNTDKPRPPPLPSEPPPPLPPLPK

CDK6-CYCLIND3 = target: T2, CDK6-CYCLIND3 (Homo sapiens, UniProt Q00534); experiment: as above; assay type: biochemical; settings: Table 4a; read-out: CDK6 CyclinD3 IC50
T2 construct: purchased Carna
T2 sequence (Q00534 whole entry): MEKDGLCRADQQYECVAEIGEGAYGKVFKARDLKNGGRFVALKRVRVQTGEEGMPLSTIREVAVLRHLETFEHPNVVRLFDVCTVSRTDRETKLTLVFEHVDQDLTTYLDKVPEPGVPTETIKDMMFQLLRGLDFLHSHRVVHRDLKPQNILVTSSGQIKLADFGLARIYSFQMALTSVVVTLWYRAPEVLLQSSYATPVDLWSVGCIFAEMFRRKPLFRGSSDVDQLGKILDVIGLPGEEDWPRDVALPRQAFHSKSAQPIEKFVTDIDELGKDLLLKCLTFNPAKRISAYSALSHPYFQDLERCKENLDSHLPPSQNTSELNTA
T2 sequence (P30281 whole entry partner): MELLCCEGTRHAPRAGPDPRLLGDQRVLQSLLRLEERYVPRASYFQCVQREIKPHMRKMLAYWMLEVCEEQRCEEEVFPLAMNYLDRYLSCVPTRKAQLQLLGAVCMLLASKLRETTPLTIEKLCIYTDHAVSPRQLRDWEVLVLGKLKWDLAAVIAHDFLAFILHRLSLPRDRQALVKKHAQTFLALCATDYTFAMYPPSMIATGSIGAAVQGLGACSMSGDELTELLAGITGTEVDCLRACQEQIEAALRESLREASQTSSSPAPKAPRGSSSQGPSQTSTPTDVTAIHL

LIXAH HLE = experiment: 2D cell proliferation assay (CellTiter-Blue); assay type: cell-based; settings: 72 h, three days of treatment, read-out: abs. IC50
Procedure, shortened: (§1)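 Fluorescence from CellTiter-Blue reduction served as the viability signal after cells had been treated for three days with up to 100 μM compound (five log-spaced doses). Values are IC50 from a four-parameter curve fit of treated/control signal.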

UXF MFE-319 = experiment: 2D cell proliferation assay (CellTiter-Blue); assay type: cell-based; settings: 72 h, three days of treatment, read-out: abs. IC50
Procedure, shortened: as §1

CNXF U-87 MG = experiment: 2D cell proliferation assay (CellTiter-Blue); assay type: cell-based; settings: Homo sapiens, 72 h, three days of treatment, read-out: abs. IC50
Procedure, shortened: as §1

CXF HCT-15 = experiment: 2D cell proliferation assay (CellTiter-Blue); assay type: cell-based; settings: Homo sapiens, 72 h, three days of treatment, read-out: abs. IC50
Procedure, shortened: as §1

MAXFTN MDA-MB-468 (ER−) = experiment: 2D cell proliferation assay (CellTiter-Blue); assay type: cell-based; settings: Homo sapiens, 72 h, three days of treatment, read-out: abs. IC50
Procedure, shortened: as §1

CXF Caco-2 = experiment: 2D cell proliferation assay (CellTiter-Blue); assay type: cell-based; settings: Homo sapiens, 72 h, three days of treatment, read-out: abs. IC50
Procedure, shortened: as §1

PRXF 22Rv1 = experiment: 2D cell proliferation assay (CellTiter-Blue); assay type: cell-based; settings: Homo sapiens, 72 h, three days of treatment, read-out: abs. IC50
Procedure, shortened: as §1

MAXFTN ZR-75-1 (ER+) = experiment: 2D cell proliferation assay (CellTiter-Blue); assay type: cell-based; settings: Homo sapiens, 72 h, three days of treatment, read-out: abs. IC50
Procedure, shortened: as §1

GXA MKN45 = experiment: 2D cell proliferation assay (CellTiter-Blue); assay type: cell-based; settings: Homo sapiens, MKN-45, 72 h, three days of treatment, read-out: abs. IC50
Procedure, shortened: as §1

BXF 5637 = experiment: 2D cell proliferation assay (CellTiter-Blue); assay type: cell-based; settings: 72 h, three days of treatment, read-out: abs. IC50
Procedure, shortened: as §1

MAXFHER SK-BR-3 = experiment: 2D cell proliferation assay (CellTiter-Blue); assay type: cell-based; settings: Homo sapiens, 72 h, three days of treatment, read-out: abs. IC50
Procedure, shortened: as §1

PRXF DU-145 = experiment: 2D cell proliferation assay (CellTiter-Blue); assay type: cell-based; settings: Homo sapiens, 72 h, three days of treatment, read-out: abs. IC50
Procedure, shortened: as §1

LXFL NCl-H460 = experiment: 2D cell proliferation assay (CellTiter-Blue); assay type: cell-based; settings: 72 h, three days of treatment, read-out: abs. IC50
Procedure, shortened: as §1

LXFA A549 = experiment: 2D cell proliferation assay (CellTiter-Blue); assay type: cell-based; settings: Homo sapiens, 72 h, three days of treatment, read-out: abs. IC50
Procedure, shortened: as §1

MMXF U-266 = experiment: 2D cell proliferation assay (CellTiter-Blue); assay type: cell-based; settings: Homo sapiens, 72 h, three days of treatment, read-out: abs. IC50
Procedure, shortened: as §1

LYXFNH Daudi = experiment: 2D cell proliferation assay (CellTiter-Blue); assay type: cell-based; settings: Homo sapiens, 72 h, three days of treatment, read-out: abs. IC50
Procedure, shortened: as §1

MAXFLB MCF7 (ER+) = experiment: 2D cell proliferation assay (CellTiter-Blue); assay type: cell-based; settings: Homo sapiens, 72 h, three days of treatment, read-out: abs. IC50
Procedure, shortened: as §1

CEXF HeLa = experiment: 2D cell proliferation assay (CellTiter-Blue); assay type: cell-based; settings: Homo sapiens, 72 h, three days of treatment, read-out: abs. IC50
Procedure, shortened: as §1

MAXFHER BT-474 = experiment: 2D cell proliferation assay (CellTiter-Blue); assay type: cell-based; settings: Homo sapiens, 72 h, three days of treatment, read-out: abs. IC50
Procedure, shortened: as §1

LYXFNH U-937 = experiment: 2D cell proliferation assay (CellTiter-Blue); assay type: cell-based; settings: Homo sapiens, 72 h, three days of treatment, read-out: abs. IC50
Procedure, shortened: as §1

PRXF LNCaP = experiment: 2D cell proliferation assay (CellTiter-Blue); assay type: cell-based; settings: Homo sapiens, 72 h, three days of treatment, read-out: abs. IC50
Procedure, shortened: as §1

LEXFCL MEC-1 = experiment: 2D cell proliferation assay (CellTiter-Blue); assay type: cell-based; settings: Homo sapiens, MEC1, 72 h, three days of treatment, read-out: abs. IC50
Procedure, shortened: as §1

[1] = Pharmacokinetics after IV bolus; assay type: in vivo; settings: rat, plasma; rats; IV bolus 30 mg/kg; N = 3
Method: (§2) Nonclinical pharmacokinetic (PK) parameters of lead CDK4/6/9 inhibitors were determined in an intravenous (IV) and oral study (p.o.) conducted in rats. Lead compounds were each administered as a single oral dose at 100 mg/kg or by IV bolus via the caudal vein at the dose of 30 mg/kg. Blood samples were collected at 0.25, 0.5, 1, 2, 4, 8, 12, and 24 hours post i.v. administration, and at 1, 2, 4, 8, 24 and 48 hours post oral administration. Plasma was processed for drug concentration analysis using a validated LCMS/MS method, and PK parameters were calculated by using WinNonlin.

[2] = Pharmacokinetics after oral administration; assay type: in vivo; settings: rat, plasma, rats
Method: as §2

LEXFAL MOLT-4 = experiment: 2D cell proliferation assay (CellTiter-Blue); assay type: cell-based; settings: Homo sapiens, 72 h, three days of treatment, read-out: abs. IC50
Procedure, shortened: as §1

[3] = oral administration 100 mg/kg, N = 3

Chain of CDK4-CYCLIND1 (P11802 whole entry): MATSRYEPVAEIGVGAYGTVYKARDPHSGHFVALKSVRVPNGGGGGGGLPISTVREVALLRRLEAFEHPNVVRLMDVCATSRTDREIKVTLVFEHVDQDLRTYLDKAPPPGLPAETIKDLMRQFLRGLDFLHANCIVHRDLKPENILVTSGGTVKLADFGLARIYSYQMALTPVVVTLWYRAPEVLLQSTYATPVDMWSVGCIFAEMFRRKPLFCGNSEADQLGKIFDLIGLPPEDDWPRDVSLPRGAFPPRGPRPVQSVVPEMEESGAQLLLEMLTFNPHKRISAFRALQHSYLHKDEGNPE
Chain of CDK4-CYCLIND1 (P24385 whole entry partner): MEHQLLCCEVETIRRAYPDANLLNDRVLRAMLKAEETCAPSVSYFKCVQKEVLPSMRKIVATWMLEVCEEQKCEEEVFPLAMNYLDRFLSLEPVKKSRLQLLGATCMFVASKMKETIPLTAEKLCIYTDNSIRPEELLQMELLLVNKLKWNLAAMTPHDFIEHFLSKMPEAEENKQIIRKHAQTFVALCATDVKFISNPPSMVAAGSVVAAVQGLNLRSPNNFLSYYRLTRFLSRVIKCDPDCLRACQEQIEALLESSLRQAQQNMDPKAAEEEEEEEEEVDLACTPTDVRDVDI

| SMILES | pIC50 (CDK4-CYCLIND1) | pIC50 (CDK9-CYCLINT1) | pIC50 (CDK6-CYCLIND3) | pIC50 (LIXAH HLE) | pIC50 (UXF MFE-319) | pIC50 (CNXF U-87 MG) | pIC50 (CXF HCT-15) | pIC50 (MAXFTN MDA-MB-468 (ER−)) | pIC50 (CXF Caco-2) | pIC50 (PRXF 22Rv1) | pIC50 (MAXFTN ZR-75-1 (ER+)) | pIC50 (GXA MKN45) | pIC50 (BXF 5637) | pIC50 (MAXFHER SK-BR-3) | pIC50 (PRXF DU-145) | pIC50 (LXFL NCl-H460) | pIC50 (LXFA A549) | pIC50 (MMXF U-266) | pIC50 (MAXFLB MCF7 (ER+)) | pIC50 (CEXF HeLa) | also measured |
| --- | --- | --- | --- | --- | --- | --- | --- | --- | --- | --- | --- | --- | --- | --- | --- | --- | --- | --- | --- | --- | --- |
| O=C1NCC[C@@]12Cc1cnc(Nc3ccc(N4CCNCC4)cc3F)nc1N(C1CCCC1)C2=O [Example D146, (S)-8-cyclopentyl-2-((2-fluoro-4-(piperazin-1-yl)phenyl)amino)-5,8-dihydro-7H-spiro[pyrido[2,3-d]pyrimidine-6,3′-pyrrolidine]-2′,7-dione] | 8.38 | 7.61 | 8.09 | 6.03 | 5.95 | 4.97 | 5.69 | 6.03 | 4.64 | 6.86 | 5.04 | 5.51 | 5.83 | 5.99 | 6.26 | 5.67 | 5.47 | 5.34 | 5.98 | 5.80 | pIC50 (LYXFNH Daudi): 6.79; pIC50 (MAXFHER BT-474): 5.26; pIC50 (LYXFNH U-937): ≥ 8.00; pIC50 (PRXF LNCaP): 6.46; pIC50 (LEXFCL MEC-1): 6.85 |
| CC(C)N1CCN(c2ccc(Nc3ncc4c(n3)N(C3CCCC3)C(=O)[C@]3(CCNC3=O)C4)nc2)CC1 [Example D154, (S)-8-cyclopentyl-2-((5-(4-isopropylpiperazin-1-yl)pyridin-2-yl)amino)-5,8-dihydro-7H-spiro[pyrido[2,3-d]pyrimidine-6,3′-pyrrolidine]-2′,7-dione] | 8.69 | 6.79 | 8.63 | 4.67 | 5.27 | ≤ 4.00 | 4.66 | 4.14 | ≤ 4.00 | 5.85 | ≤ 4.00 | 4.32 | 4.76 | 4.86 | 4.51 | 4.45 | 4.10 | 4.10 | 4.53 | 4.14 | pIC50 (MAXFHER BT-474): 4.09; pIC50 (LYXFNH U-937): ≥ 8.00; pIC50 (PRXF LNCaP): 4.51; pIC50 (LEXFCL MEC-1): 5.01 |
| CN(C)[C@H]1CCN(c2ccc(Nc3ncc4c(n3)N(C3CCCC3)C(=O)[C@]3(CCNC3=O)C4)nc2)C1 [Example D178, (S)-8-cyclopentyl-2-((5-((S)-3-(dimethylamino)pyrrolidin-1-yl)pyridin-2-yl)amino)-5,8-dihydro-7H-spiro[pyrido[2,3-d]pyrimidine-6,3′-pyrrolidine]-2′,7-dione] | 8.99 | 8.37 | 8.73 | 4.67 | 4.95 | 4.12 | 4.53 | 4.17 | ≤ 4.00 | 6.35 | 4.05 | 4.32 | 4.47 | 4.50 | 4.72 | 4.20 | 4.16 | 4.21 | 4.49 | 4.43 | pIC50 (MAXFHER BT-474): 4.17; pIC50 (LYXFNH U-937): ≥ 8.00; pIC50 (PRXF LNCaP): 4.68; pIC50 (LEXFCL MEC-1): 4.43 |
| CN(C)CCOc1ccc(Nc2ncc3c(n2)N(C2CCCC2)C(=O)[C@]2(CCNC2=O)C3)cc1 [Example D179, (S)-8-cyclopentyl-2-((4-(2-(dimethylamino)ethoxy)phenyl)amino)-5,8-dihydro-7H-spiro[pyrido[2,3-d]pyrimidine-6,3′-pyrrolidine]-2′,7-dione] | 8.90 | 8.73 | 8.67 | 6.99 | 6.84 | ≤ 4.00 | 5.85 | 6.17 | ≤ 4.00 | 7.68 | 6.39 | 6.95 | 6.84 | 6.48 | 7.33 | 6.56 | 5.48 | 6.09 | 7.24 | 6.57 | Cmax [1]: 6200 ng/mL; clearance [1]: 38.3 mL/min/kg; half-life [1]: 2.26 h; bioavailability ([2]; oral 100 mg/kg versus IV 30 mg/kg, read-out: BIOAVAILABILITY F): 36.3%; AUC [2, 3]: 14200 ng·h/mL; Cmax [2, 3]: 3360 ng/mL; MRT [2, 3]: 2.99 h; half-life [2, 3]: 3.1 h; pIC50 (LEXFAL MOLT-4): 6.75; pIC50 (MAXFHER BT-474): 6.90; pIC50 (LYXFNH U-937): ≥ 8.00; pIC50 (PRXF LNCaP): 7.62; pIC50 (LEXFCL MEC-1): 6.35 |
